Source: patent US20060074084A1, “Inhibitors of soluble adenylate cyclase” (priority 2004, published 2006)
Values after ≈ are worked out from the molar mass of the structure shown. Like-named read-outs stand apart in the source and are kept apart here.

Legend:
Solubility = type: physicochemical
[1] = biological target: soluble, sperm-specific adenylate cyclase (sAC) (Homo sapiens, UniProt Q96PN6); test: sAC-Assay (enzyme test, HTRF cAMP detection); type: biochemical
From the text: In a suitable buffer system, the soluble, sperm-specific adenylate cyclase catalyzes the reaction of adenosine triphosphate (ATP) to cyclic adenosine monophosphate (cAMP) and pyrophosphate. Free cAMP that is generated in this way is then used in a competitive detection process, in which the binding of a europium kryptate (Eu[K])-labeled anti-cAMP antibody (anti cAMP-Eu[K]-AK) to a cAMP-molecule-labeled, modified allophycocyanine-1 molecule (cAMP-XL665) is prevented. In the absence of exogenic cAMP, after excitation at 335 nm, it results in a fluorescence resonance energy transfer (FRET) between the anti cAMP-Eu[K]-AK (FRET-donor) and the cAMP-XL665 molecule (FRET-acceptor). This process is quantified at different times (time-resolved) based on the emission of FRET-acceptor XL665 (665 nm and 620 nm). A signal drop (measured as a wave ratio; calculation formula: [(E665 nm/E620 nm)×10000]) can be attributed to the presence of cAMP and thus to the activity of sAC.
First, 1.5 μl of the test substance (in 30% DMSO), only 30% DMSO in the solvent controls, is introduced per recess in a 384-hole test plate (polystyrene; 384, NV). Then, 10 μl of a dilute sAC enzyme solution is recovered (enzyme stock solution in 300 mmol of NaCl, 10% glycerol; pH 7.6; intermediate and final enzyme dilution a) 1:10 and b) 1:2000 in each case in: 1.0 mmol of MnCl2; 0.2% BSA; 50 mmol of tris, pH 7.5 in H2O). The enzyme reaction is started by adding 5 μl of the ATP-substrate solution (200 μmol of ATP in H2O) and is completed after incubation (25 minutes at room temperature) by the addition of 5 μl of stop solution (200 μmol of EDTA in PBS).
Then, 8 μl of detection solution 1 is introduced into a recess of the 384-hole measuring plate (measuring plate: polystyrene; 384, SV—black; detection solution 1:50 μl of cAMP-XL665; 950 μl of reconstitution buffer; 2200 [[…] of PBS; cAMP-XL665: production by the addition of 5 ml of H2O to the freeze-dried product as specified by Cis Bio Kit: #62AMPPEC instructions; storage: aliquoted at −80° C.). Then, 3 μl from the 91.5 μl is added to the corresponding recess of the test plate. Finally, the addition of 8 μl of detection solution 2 (detection solution 2: 50 μl of anti cAMP-Eu[K]-AK; 950 μl of reconstitution buffer; 2200 μl of PBS; anti cAMP-Eu[K]-AK: production as specified by Cis Bio Kit: #62AMPPEC instructions; storage: aliquoted at −80° C.) is carried out.
After an additional incubation of 90 minutes at room temperature, the HTRF result is measured either on the Packard Discovery or with the RubiStar HTRF measuring device (Delay: 50 μs; Integration time: 400 μs).

[2] = Biological Data table, read-out: Solubility
[3] = comparison with known compounds in the enzyme test

Chain of soluble, sperm-specific adenylate cyclase (sAC) (Q96PN6 whole entry): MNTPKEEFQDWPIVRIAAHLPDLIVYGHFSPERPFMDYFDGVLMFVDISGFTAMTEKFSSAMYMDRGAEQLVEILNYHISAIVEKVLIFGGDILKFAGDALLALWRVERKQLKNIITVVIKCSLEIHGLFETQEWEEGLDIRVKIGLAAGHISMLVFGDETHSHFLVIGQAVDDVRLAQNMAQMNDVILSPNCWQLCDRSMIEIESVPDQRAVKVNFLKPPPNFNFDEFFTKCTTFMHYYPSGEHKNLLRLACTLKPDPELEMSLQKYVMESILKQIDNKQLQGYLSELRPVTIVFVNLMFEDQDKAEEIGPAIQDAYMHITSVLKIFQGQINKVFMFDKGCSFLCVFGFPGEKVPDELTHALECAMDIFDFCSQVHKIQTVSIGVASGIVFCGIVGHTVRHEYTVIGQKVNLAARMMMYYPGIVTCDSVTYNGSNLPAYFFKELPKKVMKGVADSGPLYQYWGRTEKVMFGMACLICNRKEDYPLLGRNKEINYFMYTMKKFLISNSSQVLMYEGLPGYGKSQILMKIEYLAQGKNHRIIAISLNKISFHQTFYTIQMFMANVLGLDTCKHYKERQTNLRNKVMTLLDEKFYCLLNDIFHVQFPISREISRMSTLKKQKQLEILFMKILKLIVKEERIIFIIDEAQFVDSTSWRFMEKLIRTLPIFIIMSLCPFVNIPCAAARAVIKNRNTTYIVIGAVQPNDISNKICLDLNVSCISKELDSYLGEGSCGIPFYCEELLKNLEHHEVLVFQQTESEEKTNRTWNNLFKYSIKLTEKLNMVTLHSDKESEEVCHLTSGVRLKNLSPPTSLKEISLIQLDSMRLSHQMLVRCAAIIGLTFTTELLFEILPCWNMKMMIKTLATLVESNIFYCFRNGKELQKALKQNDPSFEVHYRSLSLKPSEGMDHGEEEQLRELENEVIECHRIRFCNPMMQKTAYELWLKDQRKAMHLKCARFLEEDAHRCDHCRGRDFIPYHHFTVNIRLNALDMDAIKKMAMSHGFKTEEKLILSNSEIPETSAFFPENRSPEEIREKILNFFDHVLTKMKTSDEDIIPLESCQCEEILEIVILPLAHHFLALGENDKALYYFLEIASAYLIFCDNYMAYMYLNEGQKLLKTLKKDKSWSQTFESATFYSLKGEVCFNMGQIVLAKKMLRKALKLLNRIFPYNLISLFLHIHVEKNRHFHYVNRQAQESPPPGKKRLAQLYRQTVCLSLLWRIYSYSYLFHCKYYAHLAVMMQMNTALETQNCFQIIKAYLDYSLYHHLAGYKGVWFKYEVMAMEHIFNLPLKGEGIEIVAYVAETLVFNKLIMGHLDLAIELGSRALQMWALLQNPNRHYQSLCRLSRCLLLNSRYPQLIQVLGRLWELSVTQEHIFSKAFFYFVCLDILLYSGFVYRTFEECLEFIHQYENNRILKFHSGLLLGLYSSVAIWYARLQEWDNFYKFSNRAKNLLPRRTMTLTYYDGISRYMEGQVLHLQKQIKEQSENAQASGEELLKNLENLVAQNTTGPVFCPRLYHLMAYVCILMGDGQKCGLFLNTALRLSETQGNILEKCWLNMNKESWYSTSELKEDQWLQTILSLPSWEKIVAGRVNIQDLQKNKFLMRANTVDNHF

Row | Structure (SMILES) | solubility (Solubility; [2]) | IC50 [1, 3] | solubility (Solubility; comparison table) | IC50 ([1]; Biological Data table)
1 | CCCNC(=O)c1[nH]c2ccc(NS(=O)(=O)c3ccc(OC(F)(F)F)cc3)cc2c1-c1ccccc1 [Example 10, 5-(4-(Trifluoromethoxy)benzenesulfonylamino)-3-phenyl-1H-indole-2-carboxylic acid propylamide] | 2.1 µg/mL (≈ 4.06 µM) |  |  | 
2 | C[C@]12CC[C@@H]3c4cc(O)c(O)cc4CC[C@H]3[C@@H]1CC[C@@H]2O [2-OH-Estradiol, reference compound] |  | 11000 nM |  | 
3 | CC(C)(C)c1ccc(S(=O)(=O)Nc2ccc3[nH]c(C(=O)Nc4cccnc4)c(-c4ccccc4)c3c2)cc1 [Example 2, 5-(4-tert-Butylbenzenesulfonylamino)-3-phenyl-1H-indole-2-carboxylic acid-pyridin-3-ylamide] | 1 µg/mL (≈ 1.91 µM) |  |  | 
4 | CN(C)CCNC(=O)c1[nH]c2ccc(NS(=O)(=O)c3ccc(C(C)(C)C)cc3)cc2c1-c1ccccc1 [Example 6, 5-(4-tert-Butylbenzenesulfonylamino)-3-phenyl-1H-indole-2-carboxylic acid-(2-dimethylaminoethyl)amide] | 0.1 µg/mL (≈ 0.193 µM) |  | 0.1 µg/mL (≈ 0.193 µM) | 
5 | C[C@]12CC[C@@H]3c4ccc(O)c(O)c4CC[C@H]3[C@@H]1CC[C@@H]2O [4-OH-Estradiol, reference compound] |  | 13000 nM |  | 
6 | CN(C)CCNC(=O)c1[nH]c2ccc(NS(=O)(=O)c3ccc(C(C)(C)C)cc3)cc2c1-c1cccc(Cl)c1 [Example 25, 5-(4-tert-Butylbenzenesulfonylamino)-3-(3-chlorophenyl)-1H-indole-2-carboxylic acid-(2-dimethylaminoethyl)amide] | 5 µg/mL (≈ 9.04 µM) | 630 nM | 5 µg/mL (≈ 9.04 µM) | 630 nM
7 | CC(C)(C)c1ccc(S(=O)(=O)Nc2ccc3[nH]c(C(=O)NC4CC4)c(-c4ccccc4)c3c2)cc1 [Example 1, 5-(4-tert-Butylbenzenesulfonylamino)-3-phenyl-1H-indole-2-carboxylic acid-cyclopropylamide] | 1 µg/mL (≈ 2.05 µM) |  |  | 3400 nM
8 | CN(C)CCNC(=O)c1[nH]c2ccc(NS(=O)(=O)c3ccc(C(C)(C)C)cc3)cc2c1-c1cccnc1 [Example 32, 5-(4-tert-Butylbenzenesulfonylamino)-3-pyridin-3-yl-1H-indole-2-carboxylic acid-(2-dimethylaminoethyl)amide] | 55 µg/mL (≈ 106 µM) |  |  | 1300 nM
9 | CCCNC(=O)c1[nH]c2ccc(NS(=O)(=O)c3ccc(C(C)(C)C)cc3)cc2c1-c1ccccc1 [Example 9, 5-(4-tert-Butylbenzenesulfonylamino)-3-phenyl-1H-indole-2-carboxylic acid propylamide] | 1.5 µg/mL (≈ 3.06 µM) |  |  | 5300 nM
10 | CC(C)(C)c1ccc(S(=O)(=O)Nc2ccc3[nH]c(C(=O)NCCO)c(-c4ccccc4)c3c2)cc1 [Example 37, 5-(4-tert-Butylbenzenesulfonylamino)-3-phenyl-1H-indole-2-carboxylic acid-(2-hydroxyethyl)amide] | 13 µg/mL (≈ 26.4 µM) |  |  | 70 nM
11 | CN(C)CCNC(=O)c1[nH]c2ccc(NS(=O)(=O)c3ccc(C(C)(C)C)cc3)cc2c1-c1ccc(Cl)cc1 [Example 26, 5-(4-tert-Butylbenzenesulfonylamino)-3-(4-chlorophenyl)-1H-indole-2-carboxylic acid-(2-dimethylaminoethyl)amide] | 3 µg/mL (≈ 5.42 µM) |  |  | 9900 nM
12 | COc1ccc(-c2c(C(=O)NCCN(C)C)[nH]c3ccc(NS(=O)(=O)c4ccc(C(C)(C)C)cc4)cc23)cc1 [Example 31, 5-(4-tert-Butylbenzenesulfonylamino)-3-(4-methoxyphenyl)-1H-indole-2-carboxylic acid-(2-dimethylaminoethyl)amide] | 7 µg/mL (≈ 12.8 µM) |  |  | 1200 nM
13 | CC(C)(C)c1ccc(S(=O)(=O)Nc2ccc3[nH]c(C(=O)NC4CCCCC4)c(-c4ccccc4)c3c2)cc1 [Example 3, 5-(4-tert-Butylbenzenesulfonylamino)-3-phenyl-1H-indole-2-carboxylic acid-cyclohexylamide] | 1 µg/mL (≈ 1.89 µM) |  |  | 2000 nM
14 | CC(C)(C)c1ccc(S(=O)(=O)Nc2ccc3[nH]c(C(=O)Nc4ccncc4)c(-c4ccccc4)c3c2)cc1 [Example 21, 5-(4-tert-Butylbenzenesulfonylamino)-3-phenyl-1H-indole-2-carboxylic acid-pyrindin-4-ylamide] | 0.1 µg/mL (≈ 0.191 µM) |  |  | 3400 nM
15 | Cc1ccc(-c2c(C(=O)NCCN(C)C)[nH]c3ccc(NS(=O)(=O)c4ccc(C(C)(C)C)cc4)cc23)cc1 [Example 29, 5-(4-tert-Butylbenzenesulfonylamino)-3-(4-methylphenyl)-1H-indole-2-carboxylic acid-(2-dimethylaminoethyl)amide] | 7 µg/mL (≈ 13.1 µM) |  |  | 2000 nM
16 | CN(C)CCNC(=O)c1[nH]c2ccc(NS(=O)(=O)c3ccc(C(C)(C)C)cc3)cc2c1-c1ccccc1Cl [Example 24, 5-(4-tert-Butylbenzenesulfonylamino)-3-(2-chlorophenyl)-1H-indole-2-carboxylic acid-(2-dimethylaminoethyl)amide] | 8 µg/mL (≈ 14.5 µM) |  |  | 1600 nM
17 | Cc1ccccc1-c1c(C(=O)NCCN(C)C)[nH]c2ccc(NS(=O)(=O)c3ccc(C(C)(C)C)cc3)cc12 [Example 28, 5-(4-tert-Butylbenzenesulfonylamino)-3-(2-methylphenyl)-1H-indole-2-carboxylic acid-(2-dimethylaminoethyl)amide] | 5 µg/mL (≈ 9.39 µM) |  |  | 2700 nM
18 | CN1CCN(NC(=O)c2[nH]c3ccc(NS(=O)(=O)c4ccc(C(C)(C)C)cc4)cc3c2-c2ccccc2)CC1 [Example 20, 5-(4-tert-Butylbenzenesulfonylamino)-3-phenyl-1H-indole-2-carboxylic acid-(4-methylpiperazin-1-yl)amide] |  |  |  | 2600 nM
19 | CC(C)(C)c1ccc(S(=O)(=O)Nc2ccc3[nH]c(C(=O)NCCN4CCOCC4)c(-c4ccccc4)c3c2)cc1 [Example 19, 5-(4-tert-Butylbenzenesulfonylamino)-3-phenyl-1H-indole-2-carboxylic acid-(2-morpholin-4-ylethyl)amide] | 4 µg/mL (≈ 7.13 µM) |  |  | 150 nM
20 | CC(C)(C)c1ccc(S(=O)(=O)Nc2ccc3[nH]c(C(=O)NC4CCOCC4)c(-c4ccccc4)c3c2)cc1 [Example 40, 5-(4-tert-Butylbenzenesulfonylamino)-3-phenyl-1H-indole-2-carboxylic acid-(tetrahydropyran-4-yl)amide] | 5 µg/mL (≈ 9.4 µM) | 86 nM | 5 µg/mL (≈ 9.4 µM) | 86 nM
